Reference: paper PMC11218446, “Antibacterial efficacy and membrane mechanism of action of the Serratia-derived non-ionic lipopeptide, serrawettin W2-FL10” (Microbiology Spectrum, 2024)

What was measured:
[1] = system: Chinese hamster ovarian (CHO) cell line; experiment: Mammalian cell cytotoxicity, MTT assay; conditions: CHO cells, MTT, 48 h; reference drug
Procedure: To determine the biocompatibility of W2-FL10 as a potential therapeutic agent, the in vitro cytotoxicity of W2-FL10 against the CHO cell line ([50]) was determined over 48 h by the Drug Discovery and Development Centre at the University of Cape Town, as previously described by Mosmann ([51]). Briefly, W2-FL10 was prepared to a 10 mM stock solution in 100% DMSO and dilutions were prepared in growth media. The CHO cell line density of 10^5 cells/well in 96-well plates and allowed to attach for 24 h. Thereafter, the compound was added to the 96-well plates at various concentrations from 50 µM down to 16 nM and incubated for a further 48 h. At 44 h, MTT was added to the wells, and the plates were read 4 h later at 540 nm on a spectrophotometer. […] Finally, cell inhibition was plotted against concentration and the 50% lethal concentration (LC50) parameter and a minimum lethal concentration (MLC90) were obtained as described for the dose responses against bacterial targets above (equation 1).

[2] = system: methicillin-resistant S. aureus (MRSA); conditions: cited from earlier work
From the text: The antimicrobial activity of the serrawettin W2-FI10 analog (i.e., C10H18O2-Leu-Ser-Thr-Phe-Ile), has been extensively investigated.

[3] = system: Escherichia coli; conditions: cited from earlier work
From the text: (§1) Key parameters contributing to the antimicrobial activity of lipopeptides include hydrophobicity and net charge ([5], [24]). Serrawettin W2-FL10 is a relatively small and moderately amphipathic lipopeptide with a neutral charge.

[4] = system: L. monocytogenes B73; conditions: cited from earlier work
From the text: as §1

CC[C@H]1CN2CCc3cc(OC)c(OC)cc3[C@@H]2C[C@@H]1C[C@H]1NCCc2cc(OC)c(OC)cc21 [emetine, reference compound]
LC50 [1]: approximately 40 nM

C10H18O2-Leu-Ser-Thr-Phe-Ile (lariat or depsi) [W2-FI10, serrawettin W2-FI10, serrawettin W2 analog, C10H18O2-Leu-Ser-Thr-Phe-Ile]
concentration with inhibitory activity [2]: 4 µg/mL

PGla
ICF [3]: 2.5

gramicidin S
ICF [3]: 5.7

tyrocidine C
ICF [4]: 1.9
MIC [4]: 13 µM
